Reference: PMC11173485, “Connecting GSK-3β Inhibitory Activity with IKK-β or ROCK-1 Inhibition to Target Tau Aggregation and Neuroinflammation in Alzheimer’s Disease—Discovery, In Vitro and In Cellulo Activity of Thiazole-Based Inhibitors” (Molecules, 2024)

Experiments:
[1] = Cytotoxicity, PrestoBlue cell viability assay in BV-2 cells; assay type: cell-based, mouse; conditions: mouse, BV-2 microglial cells, 24 h; for viability at 24 h, 1 µM: 1 µM (log C -6); for viability at 24 h, 1 µM / viability at 24 h, 10 µM / viability at 24 h, 50 µM / viability at 24 h, 100 µM / viability at 24 h, 0.1 µM: read-out: immunotoxicity in BV-2 cells, % of cell viability; for viability at 24 h, 10 µM: 10 µM (log C -5); for viability at 24 h, 50 µM: 50 µM (log C -4.3); for viability at 24 h, 100 µM: 100 µM (log C -4); for IC50 at 24 h: PrestoBlue, mean ± SEM, read-out: Cytotoxicity in BV-2 Cells (IC50 x¯ ± SEM µM)
Experimental: (§1) We assessed their cytotoxic effects at five concentrations (0.1, 1, 10, 50, and 100 µM) in HT-22 (mouse hippocampal neuronal cells) and BV-2 (mouse microglial cells) cell lines using a fluorometric assay with PrestoBlue™ cell viability reagent (Table 4, Table S2 in the SI).
(§2) Mouse microglial cells (BV-2) were a generous gift from Professor Bozena Kaminska-Kaczmarek of the Laboratory of Molecular Neurobiology, Neurobiology Center, Nencki Institute of Experimental Biology, Polish Academy of Sciences, Warsaw, Poland. Cells were cultured in Dulbecco’s modified Eagle’s Medium-high glucose (DMEM, Glutamx Thermo Fisher, Waltham, MA, USA) supplemented with 10% inactivated fetal bovine serum (Thermo Fisher), 100 IU/mL penicillin (Merck), and 100 µg/mL streptomycin (Merck). Cells were cultured in flasks (area 175 cm^2, Nunc) and incubated at 37 °C, 5% CO2. To evaluate the level of NO, IL-6, and TNF-α and the effectiveness of the compounds tested, BV-2 microglia cells were cultured in 96-well culture plates (5 × 10^4 cells per well, Falcon). For the measurement of cell viability and cell membrane damage, cells were placed in 96-well culture plates (2 × 10^4 cells per well, Falcon). Before the tests, cells were grown for 24 h in the incubator (37 °C, 5% CO2). Mouse Hippocampal Neuronal Cell Line (HT-22) was a generous gift from Dr Bartosz Pomierny of the Department of Biochemical Toxicology, Jagiellonian University Medical College, Krakow, Poland. Cells were cultured in Dulbecco’s modified Eagle’s Medium-high glucose (DMEM, Glutamx Thermo Fisher) supplemented with 10% inactivated fetal bovine serum (Thermo Fisher), 100 IU/mL penicillin (Merck), and 100 µg/mL streptomycin (Merck). Cells were cultured in flasks (area 175 cm^2, Nunc) and incubated at 37 °C, 5% CO2. For the measurement of cell viability and neuroprotective effects against okadaic acid, cells were placed in 96-well culture plates (2 × 10^4 cells per well, Falcon). Before the tests, cells were grown for 24 h in the incubator (37 °C, 5% CO2).
(§3) Cell viability was evaluated using the PrestoBlue reagent (Thermo Fisher), according to the manufacturer’s procedures. Following 24 h of incubation with the tested molecule, PrestoBlue reagent was added to a microplate well in an amount equal to one-tenth of the remaining medium volume. The resulting mixture was incubated for 15 min at 37 °C, and the fluorescence intensity (EX 530; EM 580 nm) was measured using the plate reader POLARstar Omega, (BMG Labtech, Ortenberg, Germany). The results (viability values) are provided as a percentage of live cells with respect to DMSO (control sample).
(§4) Cytotoxic effects of selected inhibitors in HT-22 mouse hippocampal neuronal cells and BV-2 mouse microglial cells
(§5) Table S2. Cytotoxic effects of selected inhibitors in HT-22 mouse hippocampal neuronal cells and BV-2 mouse microglial cells. neurotoxicity in HT-22 cellsa immunotoxicity in BV-2 cellsa […]
(§6) a % of cell viability at the given concentration of tested compound; mean value ± standard deviation (SD) of triplicates; b half maximal inhibitory concentration of the tested compound; mean value ± standard error of the mean (SEM) of triplicates; c data obtained in log C of 39 of -8.5; -7.5; -6.5; -5.5; -5, respectively; d data obtained in log C of 49 of -7.5; -6.5; -5.5; -4.5; -4. respectively; nt, not tested.

[2] = tested on: BV-2 (mouse microglial cells); assay: as above; assay type: cell-based; conditions: for effect on cell viability in BV-2 cells (in words): 0.1, 1, 10, 50, and 100 µM
Experimental: as §1, §2, §3, §4, §5, §6

[3] = target: GSK-3β (Homo sapiens, UniProt P49841); assay: ADP-Glo kinase assay, GSK-3β inhibition; assay type: biochemical; set-up: purchased Promega; conditions: for IC50: mean ± SEM, ATP 25 µM
Sequence of GSK-3β (P49841 whole entry): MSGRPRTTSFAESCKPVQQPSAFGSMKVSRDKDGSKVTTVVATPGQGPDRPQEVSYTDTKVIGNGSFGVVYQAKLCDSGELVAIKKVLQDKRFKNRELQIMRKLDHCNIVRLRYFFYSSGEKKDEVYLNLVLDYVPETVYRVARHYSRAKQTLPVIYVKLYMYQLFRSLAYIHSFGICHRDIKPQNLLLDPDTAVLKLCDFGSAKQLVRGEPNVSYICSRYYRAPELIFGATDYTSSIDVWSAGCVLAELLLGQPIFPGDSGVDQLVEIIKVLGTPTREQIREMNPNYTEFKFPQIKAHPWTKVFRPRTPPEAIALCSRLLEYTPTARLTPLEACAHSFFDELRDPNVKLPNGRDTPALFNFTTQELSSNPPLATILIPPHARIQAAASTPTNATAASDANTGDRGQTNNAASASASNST
Source text: We evaluated the inhibitory activity of the final compounds against GSK-3β, IKK-β, and ROCK-1 kinases using the commercially available ADP-Glo™ kinase assay. The method was based on the measurement of luminescence that correlates with kinase activity. […] The latter are inhibitors of the kinases of interest and were integral to the design of our studies.
Promega’s Kinase Enzyme Systems (Promega; Madison, WI, USA) were used to determine the activities of the tested compounds against the human recombinant kinases GSK-3β, IKK- β, and ROCK-1. The assays were performed according to the provided manufacturer’s instruction, based on the optimized conditions of the enzymatic reactions, using the low-volume, white polystyrene, 384-well plates. The ADP-Glo™ Assay (Promega; Madison, WI, USA) was used for bioluminescent detection of the kinase activity. Stock solutions of the tested compounds in DMSO (1mM) were diluted with the Kinase Assay Buffer before use (40 mM Tris, pH 7.5, enriched with 50 µM dithiothreitol; DTT), giving the final desired concentrations. The kinase enzymes, substrates, and ATP solutions were also diluted with the assay buffer prior to use. The GSK-3β, IKK-β, and ROCK-1 substrates were derived from human muscle glycogen synthase 1, human IkBA, and human 40S ribosomal protein S6, respectively. The assay procedure was as follows: At first, the appropriate kinase enzyme (GSK-3β: 10 ng per well; IKK-β: 45 ng per well; ROCK-1: 24 ng per well) was incubated with the tested sample (10 µM in well) for 5 min. The DMSO solution (1% in well) was used in the blank samples instead of the tested inhibitors. After the incubation period, ATP (25 µM per well in the case of GSK-3β and IKK-β kinases; 5 µM per well in the case of ROCK-1 kinase) and an appropriate enzyme substrate (0.2 µg/µL in well) were added to start the enzymatic reaction. The reaction mixture was kept at room temperature for 1 h; then, the ADP-Glo™ reagent was added, to terminate the kinase reaction and deplete any remaining ATP. After 40 min, a second reagent (Kinase Detection Reagent) was applied to convert the obtained ADP to ATP and to generate light from the newly synthesized ATP using a luciferase/luciferin reaction. The mixture was incubated for another 30 min at room temperature before the luminescence was measured. The calculations of the percent of kinases’ inhibition by tested compounds were based on the equation 100 − (S/B) × 100; S and B are the enzyme activities with and without the tested sample, respectively. […] Each compound was evaluated in two independent experiments, with every data point collected in duplicate.

[4] = Cytotoxicity, PrestoBlue cell viability assay in HT-22 cells; assay type: cell-based, mouse; conditions: mouse, HT-22 hippocampal neuronal cells, 24 h; for viability at 24 h, 1 µM: 1 µM (log C -6); for viability at 24 h, 1 µM / viability at 24 h, 10 µM / viability at 24 h, 50 µM / viability at 24 h, 100 µM / viability at 24 h, 0.1 µM: read-out: neurotoxicity in HT-22 cells, % of cell viability; for viability at 24 h, 10 µM: 10 µM (log C -5); for viability at 24 h, 50 µM: 50 µM (log C -4.3); for viability at 24 h, 100 µM: 100 µM (log C -4); for IC50 at 24 h: PrestoBlue, mean ± SEM, read-out: Cytotoxicity in HT-22 Cells (IC50 x¯ ± SEM µM)
Experimental: as §1, §2, §3, §4, §5, §6

[5] = tested on: HT-22 (mouse hippocampal neuronal cells); assay: as above; assay type: cell-based; conditions: for effect on cell viability in HT-22 cells (in words): 0.1, 1, 10, 50, and 100 µM
Experimental: as §1, §2, §3, §4, §5, §6

In the case of NC(=O)Nc1cc(-c2cccc(NC(=O)C3CC3)c2)sc1C(N)=O [Compound 58, 5-(3-(Cyclopropanecarboxamido)phenyl)-3-ureidothiophene-2-carboxamide], the viability at 24 h, 1 µM [1] is reported as 107%, the viability at 24 h, 10 µM [1] is reported as 97% and the viability at 24 h, 50 µM [1] is reported as 52%. For the same molecule, the viability at 24 h, 100 µM [1] was 13%, the IC50 at 24 h [1] was 51.4 ± 0.8 µM and the viability at 24 h, 0.1 µM [1] was 106%. For the same molecule, the “effect on cell viability in BV-2 cells (in words)” value (“effect … in BV-2 cells (in words)” below) [2] was “decreased cells’ viability”, the “effect on viability of BV-2 cells at concentrations up to 10 µM (in words)” value [2] was “did not decrease the viability of the cells” and the inhibition at 10 µM ([3]; 10 µM, mean ± SD, read-out: % inh. at 10 µM GSK-3β) was 36%. For the same molecule, the viability at 24 h, 1 µM [4] was 92%, the viability at 24 h, 10 µM [4] was 89% and the viability at 24 h, 50 µM [4] was 54%. The viability at 24 h, 100 µM [4] was 45%, the IC50 at 24 h [4] was 67.1 ± 14.5 µM and the viability at 24 h, 0.1 µM [4] was 94%. For the same molecule, the “effect on cell viability in HT-22 cells (in words)” value (“effect … in HT-22 cells (in words)” below) [5] was “decreased cells’ viability” and the “effect on viability of HT-22 cells at concentrations up to 10 µM (in words)” value [5] was “did not decrease the viability of the cells”.

In the case of CC(C)C(=O)Nc1cc(-c2cc(NC(N)=O)c(C(N)=O)s2)ccn1 [Compound 48, 5-(2-Isobutyramidopyridin-4-yl)-3-ureidothiophene-2-carboxamide], the viability at 24 h, 1 µM [1] is reported as 97%, the viability at 24 h, 10 µM [1] is reported as 66% and the viability at 24 h, 50 µM [1] is reported as 20%. The IC50 at 24 h [1] was 21.8 ± 3.8 µM, the viability at 24 h, 0.1 µM [1] was 103% and the “effect … in BV-2 cells (in words)” value [2] was “decreased cells’ viability”. For the same molecule, the IC50 [3] was 0.022 µM, the viability at 24 h, 1 µM [4] was 89% and the viability at 24 h, 10 µM [4] was 77%. For the same molecule, the viability at 24 h, 50 µM [4] was 52%, the IC50 at 24 h [4] was 36.6 ± 4.3 µM and the viability at 24 h, 0.1 µM [4] was 92%. The “effect … in HT-22 cells (in words)” value [5] was “decreased cells’ viability”.

For NC(=O)Nc1cc(-c2ccnc(NC(=O)C3CC3)c2)sc1C(N)=O [Compound 49, 5-(2-(Cyclopropanecarboxamido)pyridin-4-yl)-3-ureidothiophene-2-carboxamide], the viability at 24 h, 100 µM [1] was 74%, the IC50 at 24 h [1] was greater than 100 µM and the “effect … in BV-2 cells (in words)” value [2] was “no significant decrease in cell viability”. The “effect on viability of BV-2 cells at concentrations up to 10 µM (in words)” value [2] was “did not decrease the viability of the cells”, the IC50 [3] was 0.02 µM and the viability at 24 h, 1 µM [4] was 102%. It also gave a viability at 24 h, 10 µM [4] of 101%, a viability at 24 h, 50 µM [4] of 88% and a viability at 24 h, 100 µM [4] of 76%. The IC50 at 24 h [4] was greater than 100 µM, the viability at 24 h, 0.1 µM [4] was 95% and the “effect … in HT-22 cells (in words)” value [5] was “no significant decrease in cell viability”. For the same molecule, the “effect on viability of HT-22 cells at concentrations up to 10 µM (in words)” value [5] was “did not decrease the viability of the cells”.

COc1nc(-c2ccnc(NC(=O)C3CC3)c2)sc1C(N)=O [II, reference compound] showed a viability at 24 h, 1 µM [1] of 102%, a viability at 24 h, 10 µM [1] of 60% and a viability at 24 h, 50 µM [1] of 27%. For the same molecule, the viability at 24 h, 100 µM [1] was 4%, the IC50 at 24 h [1] was 15.4 ± 0.6 µM and the viability at 24 h, 0.1 µM [1] was 97%. For the same molecule, the “effect … in BV-2 cells (in words)” value [2] was “decreased cells’ viability”, the IC50 [3] was 0.005 µM and the viability at 24 h, 1 µM [4] was 104%. For the same molecule, the viability at 24 h, 10 µM [4] was 87%, the viability at 24 h, 50 µM [4] was 77% and the viability at 24 h, 100 µM [4] was 64%. For the same molecule, the IC50 at 24 h [4] was greater than 100 µM, the viability at 24 h, 0.1 µM [4] was 107% and the “effect … in HT-22 cells (in words)” value [5] was “decreased cells’ viability”.
